Experimental data taken from PubChem BioAssay AID328 (DTP/NCI, 2004).
Where “and” joins values, the source holds several entries; their conditions need not be identical. Identical values can stand only once. Toxic doses and inconclusive results are not listed.

Test system: BDF1 mice, P388 leukemia ip, median survival T/C
Assay: NCI In Vivo Anticancer Drug Screen. Data for tumor model P388 Leukemia (intraperitoneal) in B6D2F1 (BDF1) mice
Details: endpoint: median survival time, higher = longer survival
Procedure, shortened: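 Vehicle-dosed animals serve as the reference; survival of compound-dosed, tumour-implanted mice is divided by it.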

[1] = dose: 50.0 mg/kg/injection, schedule: Q04DX003 (ip), vehicle: saline
[2] = dose: 50.0 mg/kg/injection, schedule: Q01DX009 (ip), vehicle: saline
[3] = dose: 100.0 mg/kg/injection, schedule: Q01DX009 (ip), vehicle: saline
[4] = dose: 200.0 mg/kg/injection, schedule: Q04DX003 (ip), vehicle: saline
[5] = dose: 50.0 mg/kg/injection, schedule: Q01DX009 (ip), vehicle: saline with Tween-80
[6] = dose: 200.0 mg/kg/injection, schedule: Q01DX009 (ip), vehicle: saline with Tween-80
[7] = dose: 100.0 mg/kg/injection, schedule: Q04DX003 (ip), vehicle: saline with Tween-80
[8] = dose: 200.0 mg/kg/injection, schedule: Q04DX003 (ip), vehicle: saline with Tween-80
[9] = dose: 400.0 mg/kg/injection, schedule: Q04DX003 (ip), vehicle: saline with Tween-80
[10] = dose: 100.0 mg/kg/injection, schedule: Q04DX003 (ip), vehicle: saline
[11] = dose: 200.0 mg/kg/injection, schedule: Q01DX009 (ip), vehicle: saline
[12] = dose: 400.0 mg/kg/injection, schedule: Q01DX009 (ip), vehicle: saline
[13] = dose: 400.0 mg/kg/injection, schedule: Q04DX003 (ip), vehicle: saline
[14] = dose: 100.0 mg/kg/injection, schedule: Q01DX009 (ip), vehicle: saline with Tween-80
[15] = dose: 400.0 mg/kg/injection, schedule: Q01DX009 (ip), vehicle: saline with Tween-80
[16] = dose: 12.5 mg/kg/injection, schedule: Q01DX009 (ip), vehicle: saline with Tween-80
[17] = dose: 25.0 mg/kg/injection, schedule: Q01DX009 (ip), vehicle: saline with Tween-80
[18] = dose: 50.0 mg/kg/injection, schedule: Q01DX009 (ip), vehicle: water
[19] = dose: 100.0 mg/kg/injection, schedule: Q01DX009 (ip), vehicle: water
[20] = dose: 200.0 mg/kg/injection, schedule: Q01DX009 (ip), vehicle: water

Question: How did the T/C (dose: 35.0 mg/kg/injection, schedule: Q04DX003 (ip), vehicle: saline) turn out when CC1(C)N=C(N)N=C(N)N1c1ccc(CNC(=O)Nc2cccc(S(=O)(=O)F)c2)cc1 was run?
Answer: 104 % of control

Question: What about the T/C [1] of the same compound?
Answer: 150 % of control

Question: And the T/C (dose: 75.0 mg/kg/injection, schedule: Q04DX003 (ip), vehicle: saline)?
Answer: 163 % of control

Question: And the T/C (dose: 99.0 mg/kg/injection, schedule: Q04DX003 (ip), vehicle: saline)?
Answer: 200 % of control

Question: And the T/C (dose: 150.0 mg/kg/injection, schedule: Q04DX003 (ip), vehicle: saline)?
Answer: 159 % of control and 195 % of control and 215 % of control

Question: What about the T/C (dose: 225.0 mg/kg/injection, schedule: Q04DX003 (ip), vehicle: saline) of the same compound?
Answer: 225 % of control and 163 % of control

Question: What about the T/C (dose: 300.0 mg/kg/injection, schedule: Q04DX003 (ip), vehicle: saline) of the same compound?
Answer: 177 % of control

Question: What does the source list for CC[As](=O)(O)CC?
Answer: T/C [2]: 103 % of control; T/C [1]: 100 % of control; T/C [3]: 100 % of control and 108 % of control; T/C (dose: 132.0 mg/kg/injection, schedule: Q01DX009 (ip), vehicle: saline): 95 % of control; T/C [4]: 108 % of control

Question: Which results are given for CCOC(=O)C1=C(C)NC(C)=C(C(=O)OCC)C1c1ccccc1?
Answer: T/C [5]: 95 % of control; T/C [6]: 95 % of control

Question: What does the source list for C1CN1P1(N2CC2)=NP(N2CC2)(N2CC2)=NP(N2CC2)(N2CC2)=NP(N2CC2)(N2CC2)=N1?
Answer: T/C (dose: 0.27 mg/kg/injection, schedule: Q01DX009 (ip), vehicle: saline): 116 % of control; T/C (dose: 0.4 mg/kg/injection, schedule: Q01DX009 (ip), vehicle: saline): 112 % of control; T/C (dose: 0.62 mg/kg/injection, schedule: Q01DX009 (ip), vehicle: saline): 172 % of control; T/C (dose: 0.63 mg/kg/injection, schedule: Q04DX003 (ip), vehicle: saline): 113 % of control; T/C (dose: 1.25 mg/kg/injection, schedule: Q01DX009 (ip), vehicle: saline): 159 % of control; T/C (dose: 1.9 mg/kg/injection, schedule: Q04DX003 (ip), vehicle: saline): 154 % of control; T/C (dose: 2.5 mg/kg/injection, schedule: Q01DX009 (ip), vehicle: saline): 200 % of control; T/C (dose: 2.5 mg/kg/injection, schedule: Q04DX003 (ip), vehicle: saline): 166 % of control; T/C (dose: 2.9 mg/kg/injection, schedule: Q04DX003 (ip), vehicle: saline): 168 % of control; T/C (dose: 4.4 mg/kg/injection, schedule: Q04DX003 (ip), vehicle: saline): 186 % of control; T/C (dose: 5.0 mg/kg/injection, schedule: Q04DX003 (ip), vehicle: saline): 219 % of control; T/C (dose: 6.6 mg/kg/injection, schedule: Q01DX009 (ip), vehicle: saline): 240 % of control; T/C (dose: 10.0 mg/kg/injection, schedule: Q04DX003 (ip), vehicle: saline): 225 % of control and 223 % of control; T/C (dose: 13.2 mg/kg/injection, schedule: Q04DX003 (ip), vehicle: saline): 100 % of control; T/C (dose: 13.3 mg/kg/injection, schedule: Q04DX003 (ip), vehicle: saline): 223 % of control; T/C (dose: 15.0 mg/kg/injection, schedule: Q01DX009 (ip), vehicle: saline): 155 % of control; T/C (dose: 30.0 mg/kg/injection, schedule: Q04DX003 (ip), vehicle: saline): 285 % of control; T/C (dose: 40.0 mg/kg/injection, schedule: Q04DX003 (ip), vehicle: saline): 105 % of control

Question: Which results are given for OC(Cc1nc(-c2ccccc2)c(-c2ccccc2)s1)(C(F)(F)F)C(F)(F)F?
Answer: T/C [7]: 100 % of control; T/C [8]: 104 % of control; T/C [9]: 100 % of control

Question: Which results are given for Nc1nc2nc(-c3ccccc3)nc(N)c2nc1Sc1ccc(Cl)cc1?
Answer: T/C [7]: 94 % of control; T/C [8]: 103 % of control; T/C [9]: 103 % of control

Question: Which results are given for CC(O)(c1ccc(Br)cc1)C(c1ccccc1)c1ccccn1 (stereo unspecified)?
Answer: T/C (dose: 25.0 mg/kg/injection, schedule: Q01DX009 (ip), vehicle: saline): 104 % of control; T/C [2]: 100 % of control; T/C [3]: 86 % of control; T/C [10]: 111 % of control; T/C [11]: 111 % of control; T/C [4]: 104 % of control; T/C [12]: 101 % of control; T/C [13]: 109 % of control

Question: For C[N+]12CCCc3cc(CO)cc(c31)CCC2, which T/C (dose: 12.5 mg/kg/injection, schedule: Q04DX003 (ip), vehicle: Klucel (hydroxypropylcellulose) (HPC)) is on record?
Answer: 103 % of control

Question: What about the T/C (dose: 25.0 mg/kg/injection, schedule: Q04DX003 (ip), vehicle: Klucel (hydroxypropylcellulose) (HPC)) of the same compound?
Answer: 100 % of control

Question: What about the T/C (dose: 50.0 mg/kg/injection, schedule: Q04DX003 (ip), vehicle: Klucel (hydroxypropylcellulose) (HPC)) of the same compound?
Answer: 119 % of control

Question: Which T/C (dose: 100.0 mg/kg/injection, schedule: Q01DX001 (ip), vehicle: saline) does the source give for O=C1NC(=O)C(=O)N1 here?
Answer: 109 % of control

Question: What about the T/C [14] of the same compound?
Answer: 100 % of control

Question: What about the T/C [3] of the same compound?
Answer: 100 % of control

Question: And the T/C [10]?
Answer: 110 % of control

Question: And the T/C (dose: 200.0 mg/kg/injection, schedule: Q01DX001 (ip), vehicle: saline)?
Answer: 100 % of control

Question: What about the T/C [6] of the same compound?
Answer: 104 % of control

Question: What about the T/C [11] of the same compound?
Answer: 100 % of control

Question: What about the T/C [4] of the same compound?
Answer: 95 % of control

Question: And the T/C (dose: 400.0 mg/kg/injection, schedule: Q01DX001 (ip), vehicle: saline)?
Answer: 100 % of control

Question: What about the T/C [15] of the same compound?
Answer: 95 % of control

Question: And the T/C [12]?
Answer: 100 % of control

Question: And the T/C [13]?
Answer: 120 % of control

Question: What does the source list for COC(=O)c1ccc(OP(=O)(N(C)C)N(C)C)cc1?
Answer: T/C [16]: 117 % of control; T/C [17]: 115 % of control

Question: With C=C(C)C(=O)OCC1CO1 (stereo unspecified) as the compound, how does the T/C (dose: 25.0 mg/kg/injection, schedule: Q01DX009 (ip), vehicle: water) read?
Answer: 112 % of control

Question: And the T/C [18]?
Answer: 96 % of control

Question: And the T/C (dose: 50.0 mg/kg/injection, schedule: Q01DX010 (ip), vehicle: saline)?
Answer: 100 % of control

Question: What about the T/C [19] of the same compound?
Answer: 99 % of control

Question: What about the T/C (dose: 100.0 mg/kg/injection, schedule: Q01DX010 (ip), vehicle: saline) of the same compound?
Answer: 100 % of control

Question: What about the T/C [20] of the same compound?
Answer: 122 % of control

Question: What about the T/C (dose: 200.0 mg/kg/injection, schedule: Q01DX010 (ip), vehicle: saline) of the same compound?
Answer: 104 % of control

Question: How did the T/C (dose: 2.5 mg/kg/injection, schedule: Q01DX010 (ip), vehicle: saline) turn out when COC(=O)/C=C/CBr was run?
Answer: 110 % of control

Question: And the T/C (dose: 5.0 mg/kg/injection, schedule: Q01DX010 (ip), vehicle: saline)?
Answer: 110 % of control

Question: And the T/C (dose: 10.0 mg/kg/injection, schedule: Q01DX010 (ip), vehicle: saline)?
Answer: 110 % of control

Question: And the T/C (dose: 20.0 mg/kg/injection, schedule: Q01DX010 (ip), vehicle: saline)?
Answer: 115 % of control

Question: For CC1(C)N=C(N)N=C(N)N1c1cccc(OCCCOc2ccccc2)c1, which T/C (dose: 50.0 mg/kg/injection, schedule: Q01DX001 (ip), vehicle: Klucel (hydroxypropylcellulose) (HPC)) is on record?
Answer: 106 % of control

Question: Which results are given for CN=C(N)Nc1ccc(C(=O)O)cc1?
Answer: T/C [18]: 93 % of control; T/C [19]: 99 % of control; T/C (dose: 100.0 mg/kg/injection, schedule: Q04DX003 (ip), vehicle: water): 100 % of control; T/C [20]: 90 % of control; T/C (dose: 200.0 mg/kg/injection, schedule: Q04DX003 (ip), vehicle: water): 94 % of control; T/C (dose: 400.0 mg/kg/injection, schedule: Q01DX009 (ip), vehicle: water): 92 % of control; T/C (dose: 400.0 mg/kg/injection, schedule: Q04DX003 (ip), vehicle: water): 88 % of control

Question: Which results are given for CC1(c2ccco2)NC(=O)NC1=O (stereo unspecified)?
Answer: T/C [14]: 105 % of control; T/C [6]: 105 % of control; T/C [15]: 105 % of control

Question: For CCCC1CC[N-]CC1.CCCC1CC[N-]CC1.[Cl][Pt+2]([Cl])([Cl])[Cl], which T/C (dose: 25.0 mg/kg/injection, schedule: Q04DX003 (ip), vehicle: saline) is on record?
Answer: 122 % of control

Question: What about the T/C (dose: 33.0 mg/kg/injection, schedule: Q04DX003 (ip), vehicle: saline with Tween-80) of the same compound?
Answer: 150 % of control

Question: What about the T/C (dose: 37.5 mg/kg/injection, schedule: Q04DX003 (ip), vehicle: saline with Tween-80) of the same compound?
Answer: 118 % of control

Question: And the T/C [5]?
Answer: 110 % of control

Question: And the T/C (dose: 50.0 mg/kg/injection, schedule: Q04DX003 (ip), vehicle: saline with Tween-80)?
Answer: 160 % of control

Question: What does the source list for CNC(=S)N/N=C(\C)c1ccccn1?
Answer: T/C (dose: 6.25 mg/kg/injection, schedule: Q01DX009 (ip), vehicle: saline with Tween-80): 102 % of control; T/C [16]: 121 % of control; T/C [17]: 102 % of control

Question: For CCCCCCCCCCCCOc1ccc(C)cc1, which T/C [7] is on record?
Answer: 109 % of control

Question: And the T/C [8]?
Answer: 100 % of control

Question: What about the T/C [9] of the same compound?
Answer: 100 % of control
